Reference: patent publication US6586391B1, “Method of ameliorating erectile dysfunction” (Queen's University at Kingston, priority 1996, dated 2003)

Tests used:
pudendal vasculature = assay: Isolated perfusion of the pudendal vasculature, perfusion pressure response; set-up: species or system rat
Experimental: Vascular responses using the isolated perfusion of the pudendal vasculature preparation have been assessed. FIG. 3 illustrates the dose response curve to the α-adrenoceptor agonist methoxamine (MXA) alone. FIG. 4 illustrates the dose-response curve to endothelin alone.
Male Wistar rats (400-500 g), obtained from Charles River Laboratories (Montreal, Quebec, Canada), were housed individually under conditions of a 12 h light/12 h dark cycle (temperature of 22-24° C.), and were provided with Purina Rodent Chow and tap water ad libitum for at least two days before starting any experiment.
The rats were anaesthetized with sodium pentabarbital (60 mg/kg i.p.) and the lower abdominal aorta was exposed through a mid-line incision. The isolation of the pudendal vasculature was developed by sequential ligation of all branches of the abdominal aorta not directly supplying the pudendal vasculature. The following arteries were dissected free and ligated: iliaca, femoralis, poplitea, glutea cranial, umbilicalis, epigastria caudal, pudenda external, glutea caudal, obturatoria, circumflexa femoris lateral, circumflexa femoris medial. After heparinization (1000 U/kg), the abdominal aorta was cannulated with a smooth, blunted 19-gauge needle. The arterial catheter was placed caudad into the aorta and the vena cava was cut and vented freely through the widely open abdominal cavity. The tip of the needle was advanced down the aorta to the iliac bifurcation and sutured in place. […] The perfusate was infused for 10 min, to flush the penile vasculature of blood, before starting any experiment.
The perfusate consisted of dextran (15%, average molecular weight: 71,400 Da, Sigma, St. Louis, Mo., U.S.A.) in Tyrode's solution (pH 7.4), which was aerated with 95% O2 and 5% CO2. The composition of the Tyrode's solution was KCI 20, CaCl2.2H2O 32.3, MgCl2.6H2O 5.1, NaH2PO4.2H2O 6.2, NaHCO3 100, glucose 100, and NaCl 800 mg per 100 mL fluid. The perfusate was held in a reservoir, and passed through a bubble trapping/mixing chamber and heating bath by an injection port located prior to the bubble trap for the introduction of pharmacological agents. An in-line peristaltic pump was used to establish flow at 0.5 mL/kg/min (Minipuls 2, Gilson Medical Elec., Inc., Middleton, Wis., U.S.A.). Added pharmacological agents, methoxamine (MXA) and sodium nitroprusside (SNP), were delivered by a syringe pump (Harvard Apparatus Infusion/Withdrawal Pump, Millis, Mass., U.S.A.). A servo-controlled heat chamber served to maintain rectal temperature at 36-38° C.

Male Sprague-Dawley rats [1] = assay: Experiment 1: cumulative vasoconstrictor blockade following acute NO synthase inhibition, MAP response; assay type: in vivo, rat; conditions: for % of range (MAP lowering as % of MAPrange) / delta MAP (peak MAP lowering): sequential cumulative blockade, mean ± S.D.
Experimental: (§1) Male Sprague-Dawley rats (325-400 g) obtained from Charles River Laboratories (Montreal, Quebec, Canada) were housed individually under conditions of a 12 h light/12 h dark cycle, with room temperature at 22-24° C., and were provided with Purina Rodent Chow and tap water ad libitum for at least 2 days before any experiments were started.
The surgical method was based on the technique of Thompson et at. (Hypertension 20: 809-815 (1992)). In brief, rats were anesthetized with ketamine/xylazine (70/5 mg/kg i.p.), and the descending aorta distal to the kidneys was catheterized with small bore TEFLON® tubing (0.012-in. i.d., o.d. 30 gauge, Cole-Parmer, Laval, Quebec, Canada) inserted into vinyl tubing (0.02-in. i.d., 0.060-in, o.d., 23 gauge). […] The catheters were filled with heparinized saline (10 IU/mL) and held in place by a small amount of cyanoacrylate tissue glue at the puncture site. The catheters were tunneled subcutaneously and exteriorized at the back of the neck and sutured in place. Two days after surgery, MAP could be recorded (Narco Physiograph, E&I Instruments, Houston, Tex. or MacLab Data Acquisition System, ADInstruments, Milford, Mass., U.S.A.). After connection, an equilibration period of approximately 30 min was allowed for the determination of the steady state level of MAP before any recording began. Baseline MAP was determined from mean readings over 5 min, taken from each rat at 15 min intervals for at least 1 h prior to the start of any experiment. After obtaining a baseline MAP, the cumulative/sequential vasoconstrictor blockade was started. MAP values are expressed as an average MAP over 2-3 min following the establishment of a new steady state (i.e., MAP is no longer changing).
NOS was inhibited by a single i.p. injection of N^ω-nitro-L-arginine-methyl ester (L-NAME, Sigma, 100 mg/kg; 100 mg/mL 0.9% sterile saline solution, Baxter Corp., Toronto, Ontario, Canada). The α1-adrenoceptor antagonist prazosin® (Sigma Chemical Company, St. Louis, Mo., U.S.A.) at a dose of 1 mg/Kg (in 0.9% saline and 5% ethanol [vol/vol], total volume 1 mL/kg) was used to block the majority of the SNS induced peripheral vasoconstriction. The non-peptide AT1 receptor antagonist losartan® (Dupont-Merck, 30 mg/kg i.p.) was used to block the effects of Ang II. The V1/V2 receptor antagonist [β-mercapto-β, β-cyclopenta-methylenepropionyl, O-Et-Tyr2-Val4-Arg8]-vasopressin (AVP) (20 μg/kg/min i.v., Sigma) was utilized to block the effects of vasopressin. The effects of the endothelin vasoconstrictor system, via ETA and ETB receptors, were blocked with a commercially available endothelin antagonist PD 145065 (100 mg/kg/min i.v., bolus, donated by Parke-Davis Pharmaceuticals). Each rat in the study received all of the aforementioned vasoconstrictor antagonists (i.e., a cumulative/sequential blockade).
The interval between administration was up to 15 min, where a new steady state MAP had been established before the blockade of the next vasoconstrictor system.
All data are expressed as a peak MAP lowering as a mean±S.D. Comparison of means between groups at each treatment level was done using a Student's T-test with the Bonferroni correction method, where appropriate.

Male Sprague-Dawley rats [2] = assay: Experiment 2: effects of PD 145065 or losartan before or after NOS blockade on MAP; assay type: in vivo, rat
Experimental: as §1
The surgical method was based on the technique of Thompson et at. (Hypertension 20: 809-815 (1992)). […] Two days after surgery, MAP could be recorded (Narco Physiograph, E&I Instruments, Houston, Tex. or MacLab Data Acquisition System, ADInstruments, Milford, Mass., U.S.A.). […] Baseline MAP was determined from mean readings over 5 min, taken from each rat at 15 min intervals for at least 1 h prior to the start of any experiment. […] MAP values are expressed as an average MAP over 2-3 min following the establishment of a new steady state (i.e., MAP is no longer changing).
After obtaining appropriate baseline steady-state levels of MAP, the effects of administration of losartan (30 mg/kg i.p., n=3, under 30 mg/kg i.p. pentabarbital anesthetic) or PD 145065 (10 mg/kg/min, i,v., n=6, conscious rats previously catheterized) on resting MAP and then on the L-NAME (100 mg/kg, i.p.)-induced pressor response were assessed in two ways. […]

adult Wistar rats = assay: Apomorphine-induced erection model; assay type: in vivo, rat
Experimental: Using the well-established apomorphine (APO)-induced erection model (apomorphine 80 μg/kg, administered subcutaneously), we counted the erections per 30 min interval in adult Wistar rats, per the protocol of Heaton, J. P. W., et al. (1991)(43). Rats were pretested with apomorphine alone to confirm and quantify normal erectile response(control Groups A and B). Rats were then treated with L-NAME (100 mg/kg, administered intraperitoneally) alone, acutely (at<1 h) and at 3 h; or the combination of ETA/B antagonist (PD 145065, 5 mg/kg/min, continuous intravenous infusion)+L-NAME.

[3] = background statement; cited from earlier work
[4] = L-NAME (100 mg/kg i.p.) treated group

CC[C@H](C)[C@H](NC(=O)[C@H](CC(=O)O)NC(=O)[C@H](CC(C)C)NC(=O)[C@H](Cc1c[nH]cn1)NC(=O)[C@@H]1CSSC[C@H](N)C(=O)N[C@@H](CO)C(=O)N[C@H]2CSSC[C@H](NC(=O)[C@H](CCC(=O)O)NC(=O)[C@H](CCCCN)NC(=O)[C@H](CC(=O)O)NC(=O)[C@H](CCSC)NC(=O)[C@H](CC(C)C)NC(=O)[C@H](CO)NC(=O)[C@H](CO)NC2=O)C(=O)N[C@@H](C(C)C)C(=O)N[C@@H](Cc2ccc(O)cc2)C(=O)N[C@@H](Cc2ccccc2)C(=O)N1)C(=O)N[C@H](C(=O)N[C@@H](Cc1c[nH]c2ccccc12)C(=O)O)[C@@H](C)CC [Endothelin]
Δ Perfusion Pressure (pudendal vasculature; Endothelin sub-pressor alone, methoxamine 0 μg/ml, n = 4): 0 mmHg

COC(=O)[C@@H](N)CCCNC(=N)N[N+](=O)[O-] [L-NAME, N^ω-nitro-L-arginine-methyl ester]
steady state level of MAP (Male Sprague-Dawley rats [1]; L-NAME-treated animals, before vasoconstrictor blockade): 108±9 mmHg | experimentally induced pressure increase as a result of NOS inhibition (Male Sprague-Dawley rats [1]; rats): 30-40% | delta MAP response 20 min after L-NAME (Male Sprague-Dawley rats [2]; saline pre-treatment group, L-NAME 100 mg/kg i.p.): 40±8 mmHg | mean number of erections per 30 min interval (adult Wistar rats; L-NAME 100 mg/kg i.p. alone, at 3 h, apomorphine-induced): 3.7 ± 1.38

CN1CCc2cccc3c2[C@H]1Cc1ccc(O)c(O)c1-3 [apomorphine]
mean number of erections per 30 min interval (adult Wistar rats; Group-A (control): apomorphine 80 μg/kg s.c. alone, mean ± S.D.): 3.0 ± 1.31 | mean number of erections per 30 min interval (adult Wistar rats; Group-B (control): apomorphine 80 μg/kg s.c. alone, mean ± S.D.): 2.5 ± 0.58

CCCCc1nc(Cl)c(CO)n1Cc1ccc(-c2ccccc2-c2nn[nH]n2)cc1 [losartan]
% of range (MAP lowering as % of MAPrange) (Male Sprague-Dawley rats [1]; [4]): 24 ± 12% | delta MAP (peak MAP lowering) (Male Sprague-Dawley rats [1]; [4]): 25 ± 13 mmHg | % of range (MAP lowering as % of MAPrange) (Male Sprague-Dawley rats [1]; saline control group): 27 ± 8% | delta MAP (peak MAP lowering) (Male Sprague-Dawley rats [1]; saline control group): 20 ± 6 mmHg | level of MAP after treatment (Male Sprague-Dawley rats [2]; losartan 30 mg/kg i.p., pentabarbital anesthetic, baseline 100±15 mmHg): 78±21 mmHg

COc1ccc(OC)c(C(O)C(C)N)c1 (stereo not drawn) [methoxamine]
Δ Perfusion Pressure (pudendal vasculature; Control, methoxamine 0.1 μg/ml, n = 6): 0 mmHg | Δ Perfusion Pressure (pudendal vasculature; Control, methoxamine 0.25 μg/ml, n = 6): 0 mmHg | Δ Perfusion Pressure (pudendal vasculature; Control, methoxamine 0.5 μg/ml, n = 6): 0 mmHg | Δ Perfusion Pressure (pudendal vasculature; Control, methoxamine 1.0 μg/ml, n = 6): 4 ± 1 mmHg | Δ Perfusion Pressure (pudendal vasculature; Control, methoxamine 2.0 μg/ml, n = 6): 11 ± 2 mmHg | Δ Perfusion Pressure (pudendal vasculature; Control, methoxamine 4.0 μg/ml, n = 6): 36 ± 11 mmHg | Δ Perfusion Pressure (pudendal vasculature; Control, methoxamine 8.0 μg/ml, n = 6): 67 ± 24 mmHg | Δ Perfusion Pressure (pudendal vasculature; Endothelin sub-pressor, methoxamine 0.1 μg/ml, n = 4): 0 mmHg | Δ Perfusion Pressure (pudendal vasculature; Endothelin sub-pressor, methoxamine 0.25 μg/ml, n = 4): 34 ± 2 mmHg | Δ Perfusion Pressure (pudendal vasculature; Endothelin sub-pressor, methoxamine 0.5 μg/ml, n = 4): 93 ± 30 mmHg | Δ Perfusion Pressure (pudendal vasculature; Endothelin sub-pressor, methoxamine 1.0 μg/ml, n = 4): 168 ± 16 mmHg | shift of MXA concentration-response (perfusion pressure) relationship to lower concentrations (pudendal vasculature; with low sub-pressor dose of endothelin vs MXA alone): more than 10 fold

COc1cc2nc(N3CCN(C(=O)c4ccco4)CC3)nc(N)c2cc1OC [prazosin]
% of range (MAP lowering as % of MAPrange) (Male Sprague-Dawley rats [1]; [4]): 25 ± 10 % | delta MAP (peak MAP lowering) (Male Sprague-Dawley rats [1]; [4]): 27 ± 14 mmHg | % of range (MAP lowering as % of MAPrange) (Male Sprague-Dawley rats [1]; saline control group): 48 ± 8% | delta MAP (peak MAP lowering) (Male Sprague-Dawley rats [1]; saline control group): 36 ± 6 mmHg

ET-1: endothelin-1, vasoconstrictor peptide
potency as a vasoconstrictor relative to Ang II or catecholamines [3]: approximately 100 times

[β-mercapto-β, β-cyclopenta-methylenepropionyl, O-Et-Tyr2-Val4-Arg8]-vasopressin [(O-ET)VAVP]
% of range (MAP lowering as % of MAPrange) (Male Sprague-Dawley rats [1]; [4]): 15 ± 9 % | delta MAP (peak MAP lowering) (Male Sprague-Dawley rats [1]; [4]): 19 ± 13 mmHg | % of range (MAP lowering as % of MAPrange) (Male Sprague-Dawley rats [1]; saline control group): 37 ± 15% | delta MAP (peak MAP lowering) (Male Sprague-Dawley rats [1]; saline control group): 21 ± 11 mmHg
